Laboratory results published in patent US11299715B2, “Use of iNOS inhibitors to increase viral yield in culture” (priority 2013, dated 2022).

Assays:
[1] = test system: rHSV-1 d27-1 (d27-1) vector; experiment: ATA-HSV protocol: rHSV-1 d27-1 vector yield in V27 cell supernatants; format: cell-based, HSV-1; settings: V27 cells, n=10, ATA 50 μM at Step 1, final 20 μM
NOS1 = nNOS = experiment: Affymetrix Gen Array, NOS1 expression in 293 cells; format: cell-based, human; settings: for NOS1 expression, ATA: ATA alone
Description: (§1) Confluent 293 cells (2.4×10^6 cells in a 75 cm^2 flask) were cultured in DMEM+10% FCS for approximately 20 hrs and were then infected with one plaque forming unit per cell (PFU/cell) of HSV-1 MacIntyre Strain for 90 min. ATA at a concentration 20 μM (final) was added 90 min post-infection. The infected cells were harvested at 24 h after infection. Total RNA of sufficient quality and quantity was isolated from suspension using RNeasy Plus Mini Kit (QIAGEN, Valencia, Calif.) according to the manufacturer's instructions. Whole genome expression profiling was performed on Affymetrix Human U133 Plus 2.0 Array by the Asuragen, Inc. 3 μg total RNA was provided as input material.
(§2) Overall, RNA quality assessed on the bioanalyzer had RIN values of >9. Array hybridization and scaling factors were within passing quality control range. After scanning, raw expression CEL files were processed with Affymetrix Expression Console vs.1.1.2 (affymetrix.com). Each CEL file was processed with Robust Multichip Analysis (RMA) and a summarized table was exported as a text file. All downstream genomics and statistical analyses were done with JMP Genomics (version 5) (jmp.com/software/genomics). First, a filtering step was applied to filter-out low expression, specifically, those values below 6 in log^2 mode in at least 2 out of 8 samples. Out of 54,675 total Affy U133 Plus2 probes, 41,569 (76%) probes remained after the cutoff. Two positive control samples were also seen, human brain and pooled human universal reference RNA, respectively, that hybridized well. For future analysis, these two samples were excluded.
The first principle component separation (91.7%) is therefore explained by the effect of HSV versus Vehicle. Data was median-normalized across each probe to have a median signal of 0. ANOVA was performed to find significant differential transcripts between HSV versus Vehicle, ATA versus Vehicle, […] versus Vehicle, and HSV+ATA versus HSV alone. Multiple testing corrections were not included, and significant genes were considered less that p-value of 0.01.
To identify cell response gene signatures to wtHSV-1 McIntyre infection, transcriptional profiling was done using Affymetrix Human U133 Plus 2.0 Array with 293 cells that were either mock-treated, ATA-treated (ATA), wtHSV-1 McIntyre-infected (HSV) or ATA-treated and wtHSV-1 McIntyre-infected (HSV&ATA) for 24 h. Gene expression changes induced by infection or ATA treatment were identified by referencing the gene expression level for each probe to that corresponding in the uninfected cells sample. HSV-1 infection alone had strong impact on the gene expression profile of 293 cells when compared to untreated cells gene profile.

NOS2 = iNOS = experiment: Affymetrix Gen Array, NOS2 expression in 293 cells; format: cell-based, human; settings: AF049656
Description: as §1
as §2, with “Out of 54,675 total Affy U133 Plus2 probes, 41,569 (76%) probes remained after the cutoff. Two positive control samples were also seen, human brain and pooled human universal reference RNA, respectively, that hybridized well. For future analysis, these two samples were excluded.” left out

[2] = SABiosciences (QIAGEN) Jak-Stat RT-PCR Microarray in 293 cells; format: cell-based, human; settings: listed as printed as NOS1, 240911_at
Description: 6×10e5 293 cells (from AGTC) were infected with wtHSV-1 McIntyre strain at MOI 1 in the presence of DMEM & 10% FBS with or without 50 uM ATA and 1-2 hours and diluted to 40% with DMEM & 10% FBS (final ATA concentration of 20 uM). Triplicate total RNA samples were harvested 24 hrs later using Qiagen RNeasy mini kit and DNase treated on the column and eluted. Eluate RNA triplicate samples were combined and photospectrometer O.D. readings were performed on the eluate at 260 and 280 nm to determine concentration. Sample RNA was converted into template cDNA using SABiosciences RT2 first strand kit. The cDNA was then used in the Human JAK/STAT Signaling Pathway PCR Array (PAHS-039A).

O=C(O)C1=CC(=C(c2ccc(O)c(C(=O)O)c2)c2ccc(O)c(C(=O)O)c2)C=CC1=O [ATA, 5-((3-carboxy-4-hydroxyphenyl)(3-carboxy-4-oxo-2,5-cyclohexadien-1-ylidene)methyl)-2-hydroxybenzoic acid]
increase of d27-1 titer after ATA addition ([1]; 6-well plates, MOI 0.15): 6.1 times | d27-1 titer after ATA addition ([1]; without ATA 5.4×10^7): 1.1×10^8 DRP/ml | NOS1 expression, ATA (NOS1 = nNOS; probe 207310_s_at): 1 | NOS1 expression, HSV + ATA (NOS1 = nNOS; probe 207310_s_at, HSV alone 2.79): 1.67 | NOS1 expression, ATA (NOS1 = nNOS; probe 240911_at): 1.02 | NOS1 expression, HSV + ATA (NOS1 = nNOS; probe 240911_at, HSV alone 1.71): 1.5 | NOS2 expression, ATA (NOS2 = iNOS; ATA alone): −1.03 | NOS2 expression, HSV + ATA (NOS2 = iNOS; HSV + ATA, HSV alone 2.05): 1.72 | expression, ATA (Jak-Stat RT-PCR Microarray) ([2]; ATA alone): 1.02 | expression, HSV + ATA (Jak-Stat RT-PCR Microarray) ([2]; HSV + ATA, HSV alone 1.71): 1.5
